From paper PMC2764262 (Experimental cell research, 2008)

Tests used:
[1] = test system: human brain microvascular endothelial cells (HBMEC); experiment: BrdU labeling assay, proliferation induced by FGF-2; format: cell-based; conditions: FGF-2 20 ng/ml, 48 h
[2] = test system: caspase-3; experiment: Cleaved caspase-3 expression by Western blotting; format: cell-based, human; conditions: HBMEC, 5 µM peptide, 18 h, FGF-2 20 ng/ml
[3] = test system: FGF-2; experiment: FGF-2 production by Western blotting; format: cell-based, human; conditions: HBMEC, 5 µM peptide, 18 h; Western blot
[4] = test system: FGFR-1; experiment: FGFR-1 phosphorylation; format: cell-based, human; conditions: HBMEC, 5 µM peptide, FGF-2 20 ng/ml 15 min; IP anti-FGFR-1, anti p-Tyr
[5] = Peptide solubility on aging; conditions: 1 mg/ml in Hanks' Balanced Salt Solution, 37 °C, up to 6 days; O.D. 280 nm after centrifugation
[6] = test system: human brain microvascular endothelial cells (HBMEC); experiment: BrdU labeling assay, cell proliferation; format: cell-based; conditions: 25 µM peptide, 48 h, 0.1% FBS, no FGF-2
[7] = test system: human brain microvascular endothelial cells (HBMEC); experiment: Pseudo-capillary sprouting, microcarrier culture in fibrin gel; format: cell-based; conditions: HBMEC on microcarriers in fibrin gel, FGF-2 20 ng/ml, 5 µM peptide, day 2
[8] = Circular dichroism spectroscopy, secondary structure; format: physicochemical; conditions: 1 mg/ml in Hanks balanced salt solution, 37 °C, up to day 6 (WT: by day 3)
[9] = test system: Akt; experiment: Akt phosphorylation by Western blotting; format: cell-based, human; conditions: HBMEC, 5 µM peptide, 30 min, FGF-2 20 ng/ml; Western blot

E22Q: Synthetic Aβ (1–40) peptide bearing the E22Q (Dutch) mutation
inhibition of FGF-2-induced BrdU incorporation ([1]; 1 µM peptide): 60% | inhibition of FGF-2-induced BrdU incorporation ([1]; concentrations higher than 1 µM (up to 25 µM)): > 90% | caspase-3 activation with concomitant FGF-2 administration [2]: failed to prevent caspase-3 activation | FGF-2 expression [3]: decreased expression | FGFR-1 phosphorylation in response to FGF-2 [4]: reduced phosphorylation to levels observed in quiescent cells | solubility relative to the other peptides [5]: lower values than those of WT | inhibition of cell proliferation (BrdU incorporation) [6]: total inhibition | reduction of pseudo-capillary sprouting area [7]: nearly suppressed | secondary structure by CD on further incubation [8]: the β-sheet content increased | FGF-2-induced Akt phosphorylation [9]: marked reduction
